In patent US20100216699A1, “SEMI-SYNTHETIC GLYCOPEPTIDES HAVING ANTIBACTERIAL ACTIVITY” (LEAD THERAPEUTICS, INC., priority 2009, published 2010):
Converted amounts (≈) assume the structure as drawn. Like-named read-outs stand apart in the source and are kept apart here.

Key:
Type in all cases: cell-based
[1] = test system: Staphylococcus aureus 100 (MSSA); assay: MIC by broth microdilution, SA 100; conditions: read-out: MIC SA 100
Description: (§1) As used herein, the term “minimum inhibitory concentration” (MIC) refers to the lowest concentration of an antibiotic that is needed to inhibit growth of a bacterial isolate in vitro. A common method for determining the MIC of an antibiotic is to prepare several tubes containing serial dilutions of the antibiotic, that are then inoculated with the bacterial isolate of interest.
(§2) Antibacterial activity in vitro is investigated by broth microdilution method in Meuller-Hinton broth as recommended by NCCLS. All strains tested are clinical isolates either sensitive or resistant to natural glycopeptides. MIC values were determined using the CLSI-recommended broth microdilution procedure (Clinical and Laboratoratory Standards Institute, Methods for Dilution Antimicrobial Susceptibility Tests for Bacteria That Grow Aerobically; Approved Standard-Seventh Edition.). Automated liquid handlers (Multidrop 384, Labsystems, Helsinki, Finland; Biomek 2000 and Multimek 96, Beckman Coulter, Fullerton Calif.) were used to conduct serial dilutions and liquid transfers.

[2] = test system: Staphylococcus aureus 757 (MRSA); assay: MIC by broth microdilution, SA 757; conditions: read-out: MIC SA 757
Description: as §1, §2

[3] = test system: Staphylococcus aureus 2012 (VISA); assay: MIC by broth microdilution, SA 2012; conditions: read-out: MIC SA 2012
Description: as §1, §2

[4] = test system: Staphylococcus epidermidis 835 (MSSE); assay: MIC by broth microdilution, SE 835; conditions: read-out: MIC SE 835
Description: as §1, §2

[5] = test system: Staphylococcus epidermidis 831 (MRSE); assay: MIC by broth microdilution, SE 831; conditions: read-out: MIC SE 831
Description: as §1, §2

[6] = test system: Enterococcus faecalis 101 (vancomycin sensitive); assay: MIC by broth microdilution, EFC 101; conditions: read-out: MIC EFC 101
Description: as §1, §2

[7] = test system: Enterococcus faecalis 848 (VRE); assay: MIC by broth microdilution, EFC 848; conditions: read-out: MIC EFC 848
Description: as §1, §2

[8] = test system: Enterococcus faecium 750 (vancomycin sensitive); assay: MIC by broth microdilution, EFCM 750; conditions: read-out: MIC EFCM 750
Description: as §1, §2

[9] = test system: Enterococcus faecium 752 (VRE); assay: MIC by broth microdilution, EFCM 752; conditions: read-out: MIC EFCM 752
Description: as §1, §2

[10] = test system: Streptococcus pneumoniae 1195 (penicillin sensitive); assay: MIC by broth microdilution, SPNE 1195; conditions: read-out: MIC SPNE 1195
Description: as §1, §2

[11] = test system: Streptococcus pyogenes 712 (penicillin sensitive); assay: MIC by broth microdilution, SPYO 712; conditions: read-out: MIC SPYO 712
Description: as §1, §2

Compound: CCCCCCCCNC(=O)NC(=O)C[C@@H]1NC(=O)[C@H](NC(=O)[C@@H](CC(C)C)NC)[C@H](O)c2ccc(c(Cl)c2)Oc2cc3cc(c2O)Oc2ccc(cc2Cl)[C@@H](O)[C@H]2NC(=O)[C@H](NC(=O)[C@@H]3NC1=O)c1ccc(O)c(c1)-c1c(O)cc(O)cc1[C@@H](C(=O)NC1C3CC4CC(C3)CC1C4)NC2=O (stereo partly shown) [Compound 23]
- MIC ([1]; Staphylococcus aureus 100 (MSSA), clinical isolate, Mueller-Hinton broth): 2 µg/mL (≈ 1.4 µM)
- MIC ([2]; Staphylococcus aureus 757 (MRSA), clinical isolate, Mueller-Hinton broth): 2 µg/mL (≈ 1.4 µM)
- MIC ([3]; Staphylococcus aureus 2012 (VISA), clinical isolate, Mueller-Hinton broth): 2 µg/mL (≈ 1.4 µM)
- MIC ([4]; Staphylococcus epidermidis 835 (MSSE), clinical isolate, Mueller-Hinton broth): 2 µg/mL (≈ 1.4 µM)
- MIC ([5]; Staphylococcus epidermidis 831 (MRSE), clinical isolate, Mueller-Hinton broth): 1 µg/mL (≈ 0.698 µM)
- MIC ([6]; Enterococcus faecalis 101 (vancomycin sensitive), clinical isolate, Mueller-Hinton broth): 2 µg/mL (≈ 1.4 µM)
- MIC ([7]; Enterococcus faecalis 848 (VRE), clinical isolate, Mueller-Hinton broth): 2 µg/mL (≈ 1.4 µM)
- MIC ([8]; Enterococcus faecium 750 (vancomycin sensitive), clinical isolate, Mueller-Hinton broth): 1 µg/mL (≈ 0.698 µM)
- MIC ([9]; Enterococcus faecium 752 (VRE), clinical isolate, Mueller-Hinton broth): 2 µg/mL (≈ 1.4 µM)
- MIC ([10]; Streptococcus pneumoniae 1195 (penicillin sensitive), clinical isolate, Mueller-Hinton broth): 0.5 µg/mL (≈ 0.349 µM)
- MIC ([11]; Streptococcus pyogenes 712 (penicillin sensitive), clinical isolate, Mueller-Hinton broth): 0.25 µg/mL (≈ 0.175 µM)

Compound: CN[C@H](CC(C)C)C(=O)N[C@H]1C(=O)N[C@@H](CC(N)=O)C(=O)N[C@H]2C(=O)N[C@H]3C(=O)N[C@H](C(=O)N[C@H](C(=O)O)c4cc(O)cc(O)c4-c4cc3ccc4O)[C@H](O)c3ccc(c(Cl)c3)Oc3cc2cc(c3O[C@@H]2O[C@H](CO)[C@@H](O)[C@H](O)[C@H]2O[C@H]2C[C@](C)(N)[C@H](O)[C@H](C)O2)Oc2ccc(cc2Cl)[C@H]1O [Vancomycin, vancomycin]
- MIC ([1]; Staphylococcus aureus, MSSA): 1 µg/mL (≈ 0.69 µM)
- MIC ([2]; Staphylococcus aureus, MRSA): 1 µg/mL (≈ 0.69 µM)
- MIC ([3]; Staphylococcus aureus, VISA): 8 µg/mL (≈ 5.52 µM)
- MIC ([4]; Staphylococcus epidermidis): 2 µg/mL (≈ 1.38 µM)
- MIC ([5]; Staphylococcus epidermidis, MRSE): 2 µg/mL (≈ 1.38 µM)
- MIC ([6]; Enterococcus faecalis): 2 µg/mL (≈ 1.38 µM)
- MIC ([7]; Enterococcus faecalis, VRE): > 64 µg/mL
- MIC ([8]; Enterococcus faecium): 1 µg/mL (≈ 0.69 µM)
- MIC ([9]; Enterococcus faecium, VRE): > 64 µg/mL
- MIC ([10]; Streptococcus pneumoniae): 0.25 µg/mL (≈ 0.173 µM)
- MIC ([11]; Streptococcus pyogenes): 0.5 µg/mL (≈ 0.345 µM)
